Assays:
[1] = Solubility of the active agent in a typical aqueous formulation; type: physicochemical; conditions: room temperature
[2] = Solubility of the active agent in the formulation vehicle; type: physicochemical

Compound: Cc1cc(C)c(C=C2C(=O)Nc3ccccc32)[nH]1 [3-[(2,4-dimethylpyrrol-5-yl)methylene]-2-indolinone]
- solubility in a typical aqueous formulation [1]: approximately 10 nanograms per milliliter
- solubility, drug dissolved in vehicle ([2]; vehicle free of polyvinylpyrrolidone): about 15 mg/g
- solubility, drug dissolved in vehicle ([2]; vehicle of the present invention (with polyvinylpyrrolidone)): over 30 mg/g

From patent US20020119198A1, “Self-emulsifying drug delivery systems for extremely water-insoluble, lipophilic drugs” (priority 2000, published 2002)
